# In patent US10994016B2, “Graphene oxide mediated cellular delivery of gadolinium-labeled molecules” (Northwestern University, priority 2015, dated 2021):
# “And” between values parts separate entries of the source, which are not always exact repeats. Equal values may be shown once.
# Columns and labels:
# [1] = Octanol-water partition coefficients; type: physicochemical; conditions: errors show SEM; Gd in each layer by ICP-MS
# Experimental: Approximately 1 mg of each compound was dissolved in 1 mL of a 1:1 mixture of water/1-octanol. After shaking the sample tube vigorously for 30 s, the tube was placed on a rotator for gentle mixing over 6 h. The tube was then removed from the rotator and allowed to sit for 12 h to ensure complete separation of the aqueous and organic phases. […] Once separation was complete, 10 μL was removed from each layer to determine the concentration of Gd by ICP-MS. The partition coefficient was calculated from the following equation: log10P=log10(Co/Cw), where log10 P is the logarithm of the partition coefficient, Co is the concentration of Gd in the 1-octanol layer, and Cw is the concentration of Gd in the water layer.
# HeLa cells = assay: Cellular delivery studies with and without GO co-incubation, HeLa; type: cell-based; conditions: for Gd content (fmol/cell): 188 μM Gd(III), 24 h, replicate values; for Gd content (fmol/cell), Outliers: values removed as outliers (Chauvenet's criterion, * experimenter judgment)
# Experimental: ICP-MS Samples were prepared in 15-mL conical tubes by adding ACS reagent grade nitric acid (70%), followed by incubation at 70° C. overnight to allow for complete sample digestion. The effectiveness of this digestion protocol was previously validated for GO. After incubation, a multi-element internal standard (containing Bi, Ho, In, Li, Sc, Tb, and Y, Inorganic Ventures, Christiansburg, Va.) and milli-Q water (18.2 MΩ·cm) were added to produce a final sample of 3% (v/v) nitric acid and 5 ng/mL internal standard.
# ICP-MS was performed on a computer-controlled (Plasmalab software) Thermo X series II ICP-MS (Thermo Fisher Scientific, Waltham, Mass., USA) operating in standard mode equipped with an ESI SC-2 autosampler (Omaha, Nebr., USA). Each sample was acquired using 1 survey run (10 sweeps) and 3 main (peak jumping) runs (100 sweeps). The isotopes selected for analysis were Gd with In and Ho isotopes selected as internal standards for data interpolation. Instrument performance is optimized daily through an autotune followed by verification via a performance report (passing manufacturer specifications). Instrument calibration was accomplished by preparing individual-element Gd standards (Inorganic Ventures, Christiansburg, Va., USA) using concentrations of 0.78125, 1.5625, 3.125, 6.25, 12.50, 25.00, 50.00, 100.0, and 200.0 ng/mL containing 3.0% nitric acid (v/v) and 5.0 ng/mL of multi-element internal standard.
# Dulbecco's modified phosphate buffered saline (DPBS), media, and dissociation reagents were purchased from Life Technologies (Carlsbad, Calif.). CorningBrand® cell culture consumables (flasks, plates, etc.) and sera were purchased from VWR Scientific (Radnor, Pa.). HeLa cells (ATCC® CCL-2™) and KB cells (ATCC® CCL-17™) were purchased from the American Type Culture Collection (ATCC, Manassas, Va.) and cultured in phenol red-free minimum essential media (MEM) supplemented with 10% fetal bovine serum (FBS). Prior to all experiments, cells were plated and allowed to incubate for 24 hours before dosing. Cells were harvested with 0.25% TrypLE for 5 minutes at 37° C. in a 5.0% CO2 incubator. For sterilization, all Gd(III)-labeled molecules were filtered with 0.2 μm sterile filters prior to concentration determination and storage at 4° C. GO was used as prepared without further sterilization. […] Cells were grown in a humidified incubator operating at 37° C. and 5.0% CO2.
# Cell counting was conducted using a Guava EasyCyte Mini Personal Cell Analyzer (EMD Millipore, Billerica, Mass.). After cell harvesting, an aliquot (50 μL) of the cell suspensions was mixed with Guava ViaCount reagent (150 μL) and allowed to stain at room temperature for at least 5 minutes. The dilution factor of 4 was determined based upon optimum machine performance (20-150 cells/μL). After vortexing for 10 sec, stained cells were counted using a Guava EasyCyte Mini Personal Cell Analyzer (PCA) using the ViaCount software module. For each sample, 1000 events were acquired. Gating of live/dead and cell/debris classifications were performed manually by the operator.
# Cellular delivery studies were performed with HeLa and KB cells. HeLa and KB were plated at a cell density of approximately 25,000 and 50,000 cells per well, respectively, in a 24-well plate as counted by a hemocytometer. Stock solutions of 1-14 (1 mM), 150 nm GO (100 μg/mL), and 1500 nm GO (100 μg/mL) were prepared using sterile Milli-Q water. Prior to dosing, 80 μL ([…]) of each GO (150 nm and 1500 nm) and 80 μL (80 nmol) of each Gd(III)-labeled molecule (1-14) were mixed and allowed to adsorb for at least 15 minutes. 150 μL Gd(III)-GO solutions were added to 250 μL media to give a final concentration of 188 μM Gd and 18.8 μg/mL GO. Cells were incubated with the mixture of Gd(III)-labeled molecules and GO for […]. To harvest, cells were rinsed in-plate three times with 500 μL PBS and trypsinized using 100 μL 0.25% TrypLE. […]
# [2] = incubation concentration of 100 mM; cited from earlier work
# [3] = +150 nm GO co-incubation, 18.8 μg/mL GO
# [4] = +1500 nm GO co-incubation, 18.8 μg/mL GO
# [5] = molecule alone, without GO, 24-well plate
SMILES,Water-Octanol LogP [1],Gd content (fmol/cell) (HeLa cells; [3]),Gd content (fmol/cell) (HeLa cells; [4]),Gd content (fmol/cell) (HeLa cells; [5]),"Gd content (fmol/cell), Outliers (HeLa cells; +1500 nm GO)","Gd content (fmol/cell), Outliers (HeLa cells; +150 nm GO)",Highest cellular labeling reported to date [2] [fmol Gd/cell]
O=C([O-])CN1CCN(CC(=O)[O-])CCN(CC(O)Cn2cc(CCCOP(=O)(O)O)nn2)CCN(CC(=O)[O-])CC1.[Gd+3] (stereo not drawn) [Molecule 3],−4.05 ± 0.17,1.84 fmol/cell and 1.36 fmol/cell and 1.29 fmol/cell,1.61 fmol/cell and 1.64 fmol/cell and 1.41 fmol/cell,0.74 fmol/cell and 0.90 fmol/cell and 0.65 fmol/cell,,,
CC(O)CN1CCN(CC(=O)[O-])CCN(CC(=O)[O-])CCN(CC(=O)[O-])CC1.[Gd+3] (stereo not drawn) [Molecule 13],−3.59 ± 0.16,1.09 fmol/cell and 1.47 fmol/cell and 1.02 fmol/cell,1.36 fmol/cell and 1.84 fmol/cell and 0.82 fmol/cell and 1.59 fmol/cell and 1.47 fmol/cell,0.51 fmol/cell and 0.42 fmol/cell and 0.61 fmol/cell,0.53* fmol/cell and 0.55* fmol/cell,,
CCCCc1cn(CC(O)CN2CCN(CC(=O)[O-])CCN(CC(=O)[O-])CCN(CC(=O)[O-])CC2)nn1.[Gd+3] (stereo not drawn) [Molecule 1],−2.18 ± 0.02,0.63 fmol/cell (2×) and 0.44 fmol/cell and 0.58 fmol/cell and 0.57 fmol/cell (2×) and 0.76 fmol/cell,0.59 fmol/cell and 0.58 fmol/cell and 0.39 fmol/cell and 0.77 fmol/cell and 0.86 fmol/cell and 0.76 fmol/cell and 0.64 fmol/cell,0.62 fmol/cell and 0.67 fmol/cell and 0.36 fmol/cell and 0.63 fmol/cell and 0.40 fmol/cell,1.18 fmol/cell and 1.45 fmol/cell,1.11 fmol/cell and 1.24 fmol/cell,
"CC(O)CN1CCN(CC(=O)[O-])CCN(CC(=O)[O-])CCN(CC(=O)[O-])CC1.[Gd+3] (stereo not drawn) [Molecule 13, [Gd(HP-DO3A)(H2O)]]",,,,,,,31
NCCCCCCCCCCCCN1CCN(CC(=O)[O-])CCN(CC(=O)[O-])CCN(CC(=O)[O-])CC1.[Gd+3] [Molecule 10],−1.63 ± 0.04,45.53 fmol/cell and 50.10 fmol/cell and 48.08 fmol/cell,14.47 fmol/cell and 26.93 fmol/cell and 18.26 fmol/cell,3.88 fmol/cell and 5.08 fmol/cell and 4.54 fmol/cell,,,
NCCCN1CCN(CC(=O)[O-])CCN(CC(=O)[O-])CCN(CC(=O)[O-])CC1.[Gd+3] [Molecule 8],−3.86 ± 0.01,13.40 fmol/cell and 20.22 fmol/cell and 14.84 fmol/cell,7.61 fmol/cell and 7.56 fmol/cell and 6.31 fmol/cell,0.68 fmol/cell and 1.78 fmol/cell and 1.87 fmol/cell and 1.16 fmol/cell and 0.94 fmol/cell and 1.30 fmol/cell and 1.48 fmol/cell,,,
O=C([O-])CN1CCN(CC(=O)[O-])CCN(CC(O)Cn2cc(CCCc3ccccc3)nn2)CCN(CC(=O)[O-])CC1.[Gd+3] (stereo not drawn) [Molecule 6],−1.26 ± 0.08,1.13 fmol/cell and 0.53 fmol/cell and 0.68 fmol/cell and 0.73 fmol/cell (2×) and 0.47 fmol/cell and 0.87 fmol/cell,1.29 fmol/cell and 1.24 fmol/cell and 0.67 fmol/cell and 0.64 fmol/cell,0.78 fmol/cell and 0.72 fmol/cell and 0.40 fmol/cell and 0.47 fmol/cell and 0.58 fmol/cell,4.12 fmol/cell,3.26 fmol/cell,
